Experimental data reported in patent US10633389B2, “CARM1 inhibitors and uses thereof” (Epizyme, Inc., priority 2013, dated 2020).

Test system: asymmetric di-methyl PABP1 in RKO cells
Assay: RKO methylation assay, In Cell Western (ICW) for asymmetric di-methyl PABP1
Type: cell-based
Settings: Homo sapiens, RKO, Cellular potencies, ICW PABP1me2a
Description: RKO adherent cells were purchased from ATCC (American Type Culture Collection), Manassas, Va., USA. DMEM/Glutamax medium, penicillin-streptomycin, heat inactivated fetal bovine serum, 0.05% trypsin and D-PBS were purchased from Life Technologies, Grand Island, N.Y., USA. Odyssey blocking buffer, 800 CW goat anti-rabbit IgG (H+L) antibody, and Licor Odyssey infrared scanner were purchased from Licor Biosciences, Lincoln, Nebr., USA. Asymmetric di-methyl PABP1 antibody was purchased from Cell Signaling Technology, Danvers, Mass., USA. Methanol was purchased from VWR, Franklin, Mass., USA. 10% Tween 20 was purchased from KPL, Inc., Gaithersburg, Md., USA. Paraformaldehyde (PFA) was purchased from EM Sciences. DRAQ5 was purchased from Biostatus Limited, Leicestershire, UK.
RKO adherent cells were maintained in growth medium (DMEM/Glutamax medium supplemented with 10% v/v heat inactivated fetal bovine serum and 100 units/mL penicillin-streptomycin) and cultured at 37° C. under 5% CO2.
Cell treatment, In Cell Western (ICW) for detection of asymmetric di-methyl PABP1 and DNA content: RKO cells were seeded in assay medium at a concentration of 30,000 cells per mL to a poly-D-lysine coated 384 well culture plate (BD Biosciences 356697) with 50 VL per well. Compound (100 nL) from a 96-well source plate was added directly to 384 well cell plate. Plates were incubated at 37° C., 5% CO2 for 48 hours. After two days of incubation, plates were brought to room temperature outside of the incubator for ten minutes and blotted on paper towels to remove cell media. Cells were fixed for 20 minutes at room temperature by adding 50 ul of 8% PFA followed by aspiration of supernatant with the Biotek EL406 plate washer. Cells were then permeabilized by addition of 50 μL of ice cold 100% methanol directly to each well and incubated for 30 min at room temperature. After 30 min, plates were transferred to a Biotek EL406 plate washer and washed 2 times with 100 μL per well of wash buffer (1×PBS). Next 60 μL per well of Odyssey blocking buffer (Odyssey Buffer with 0.1% Tween 20 (v/v)) were added to each plate and incubated 1 hour at room temperature. Blocking buffer was removed and 20 μL per well of primary antibody was added (asymmetric-methyl PABP1) diluted 1:400 in Odyssey buffer with 0.1% Tween 20 (v/v)) and plates were incubated overnight (16 hours) at 4° C. Plates were washed 5 times with 100 μL per well of wash buffer. Next 20 μL per well of secondary antibody was added (1:800 800 CW goat anti-rabbit IgG (H+L) antibody, 1:2000 DRAQ5 in Odyssey buffer with 0.1% Tween 20 (v/v)) and incubated for 1 hour at room temperature. The plates were washed 5 times with 100 μL per well wash buffer then 2 times with 100 μL per well of water. Plates were allowed to dry at room temperature then imaged on the Licor Odyssey machine which measures integrated intensity at 700 nm and 800 nm wavelengths. Both 700 and 800 channels were scanned.
First, the ratio for each well was determined by:
Each plate included fourteen control wells of DMSO only treatment (minimum inhibition) as well as fourteen control wells for maximum inhibition treated with 20 μM of a reference compound. The average of the ratio values for each control type was calculated and used to determine the percent […] for each test well in the plate. Reference compound was serially diluted three-fold in DMSO for a total of nine test concentrations, beginning at 20 μM.
Percent inhibition was determined and IC50 curves were generated using triplicate wells per concentration of compound. […]

Row | Compound | IC50 [µM]
1 | CNCC(O)COc1cc(Cl)cc(-c2nc(-c3cn[nH]c3)c(C)c(N(C)C3CCOCC3)n2)c1 (stereo not shown) [Example 617-1a] | 10 to 20
2 | CNCC(O)COc1cccc(-c2nc(NC3CCOC3)c(C)c(N3CCN4C(=O)OC[C@@H]4C3)n2)c1 (stereo partly shown) [Example 454-1a] | 5 to 10
3 | CNCC(O)COc1cccc(-c2nc(-c3cnc4ccnn4c3)cc(N(C)C3CCOCC3)n2)c1 (stereo not shown) [Example 564-1a] | 10 to 20
4 | CNCC(O)COc1cccc(-c2nc(-c3cncn3C)cc(N(C)C3CCOCC3)n2)c1 (stereo not shown) [Example 580-1a] | 10 to 20
5 | CNCC(O)COc1cccc(-c2nc(N[C@@H]3CCOC3)c(C)c(N(C)C3CCN(C)CC3)n2)c1 (stereo partly shown) [Example 379-1a] | 10 to 20
6 | CNCC(O)COc1cccc(-c2nc(N[C@@H]3CCOC3)c(C)c(N3CC[C@@H](N(C)C)C3)n2)c1 (stereo partly shown) [Example 392-1a] | 5 to 10
7 | CNCC(O)COc1cccc(-c2nc(-c3cnc4nccn4c3)cc(N(C)C3CCOCC3)n2)c1 (stereo not shown) [Example 620-1a] | 10 to 20
8 | CNCC(O)COc1cc(Cl)cc(-c2nc(-c3cnc4ccccn34)c(C)c(N(C)C3CCOCC3)n2)c1 (stereo not shown) [Example 561-1a] | 10 to 20
9 | CCO[C@@H]1CCC[C@@H]1N(CC)c1nc(-c2cc(OC[C@H](O)CNC)ccc2Cl)nc(-c2c(C)noc2C)c1C [Example 254-3] | 5 to 10
10 | CNCC(O)COc1cccc(-c2nc(-c3cncnc3)cc(-c3c(C)noc3C)n2)c1 (stereo not shown) [Example 8-1a] | 10 to 20
11 | CNC[C@@H](O)COc1ccc(Cl)c(-c2nc(-c3c(C)noc3C)c(C)c(N3CCC4(CN(C(=O)OC)C4)C3)n2)c1 [Example 177-3] | < 5
12 | CNC[C@@H](O)COc1ccc(Cl)c(-c2nc(-c3c(C)noc3C)c(C)c(N3Cc4cnc(C)nc4C3)n2)c1 [Example 245-3] | < 5
13 | CNCC(O)COc1cccc(-c2nc(NC3CN(C(=O)OC)C3)c(C)c(-c3c(C)noc3C)n2)c1 (stereo not shown) [Example 275-1a] | 10 to 20
14 | CNCC(O)COc1cccc(-c2nc(-c3c(C)noc3C)c(C)c(N3CCC4(CC3)CN(S(C)(=O)=O)C4)n2)c1 (stereo not shown) [Example 179-1a] | < 5
15 | CNC[C@@H](O)COc1ccc(Cl)c(-c2nc(N[C@H]3C[C@@H](C)O[C@@H](C)C3)c(C)c(-c3c(C)noc3C)n2)c1 [Example 172-3] | < 5
16 | CNCC(O)COc1cccc(-c2nc(-c3c(C)nn(C)c3C)cc(N(C)C3CCOCC3)n2)c1 (stereo not shown) [Example 528-1a] | 5 to 10
17 | CCOC(=O)N1CCOC[C@@H]1CNc1nc(-c2cccc(OCC(O)CNC)c2)nc(-c2c(C)noc2C)c1C (stereo partly shown) [Example 206-1a] | < 5
18 | CNCC(O)COc1cccc(-c2nc(-c3c(C)noc3C)cc(N3CCN(CC(F)F)CC3)n2)c1 (stereo not shown) [Example 79-1a] | < 5
19 | CNCC(O)COc1cccc(-c2nc(N[C@H]3CC[C@@H](O)CC3)cc(-c3c(C)noc3C)n2)c1 (stereo partly shown) [Example 33-1a] | 5 to 10
20 | CNCC(O)COc1ccc(Cl)c(-c2nc(N[C@H]3CCN(C(=O)OC)C[C@H]3F)c(C)c(-c3c(C)noc3C)n2)c1 (stereo partly shown) [Example 4-3] | < 5
21 | CNC[C@@H](O)COc1ccc(Cl)c(-c2nc(-c3c(C)noc3C)c(C)c(N(C)C3CC(COC)C3)n2)c1 (stereo partly shown) [Example 220-3] | < 5
22 | CNCC(O)COc1cccc(-c2nc(-c3ccnc(OC)c3)cc(N(C)C3CCOCC3)n2)c1 (stereo not shown) [Example 541-1a] | 10 to 20
23 | CNC[C@@H](O)COc1ccc(Cl)c(-c2nc(-c3c(C)noc3C)c(C)c(N3Cc4[nH]c(=O)[nH]c(=O)c4C3)n2)c1 [Example 279-3] | 10 to 20
24 | CNCC(O)COc1cccc(-c2nc(NC3CCOC3)c(C)c(N3CC4CC(C3)N4)n2)c1 (stereo not shown) [Example 452-1a] | 10 to 20
25 | CNCC(O)COc1cccc(-c2nc(N3CC4CCC(C3)O4)cc(N(C)C3CCOCC3)n2)c1 (stereo not shown) [Example 566-1a] | 10 to 20
26 | CNCC(O)COc1cccc(-c2nc(N[C@@H]3CCOC3)c(C)c(N3CCC[C@@H](O)C3)n2)c1 (stereo partly shown) [Example 358-1a] | 10 to 20
27 | CNCC(O)COc1cccc(-c2nc(N[C@@H]3CCN(C4CC4)C[C@H]3F)c(C)c(-c3c(C)noc3C)n2)c1 (stereo partly shown) [Example 261-1a] | < 5
28 | CNCC(O)COc1cccc(-c2nc(N[C@@H]3CCNC3)c(C)c(-c3c(C)noc3C)n2)c1 (stereo partly shown) [Example 307-1a] | 10 to 20
29 | CNCC(O)COc1cccc(-c2nc(-c3c(C)noc3C)c(C)c(N3[C@@H]4CC[C@H]3CN(C)C4)n2)c1 (stereo partly shown) [Example 117-1a] | 10 to 20

More lines, now with the values ahead:

Row | IC50 [µM] | Compound
30 | < 5 | CNC[C@@H](O)COc1ccc(F)c(-c2nc(NC3CCN(C(=O)OC)CC3)c(C)c(-c3c(C)noc3C)n2)c1 [Example 40-3]
31 | < 5 | CNCC(O)COc1cccc(-c2nc(NCC3CCOCC3)c(F)c(-c3c(C)noc3C)n2)c1 (stereo not shown) [Example 143-1a]
32 | < 5 | CNC[C@@H](O)COc1ccc(Cl)c(-c2nc(NC3CC(C)C3)c(C)c(-c3c(C)noc3C)n2)c1 (stereo partly shown) [Example 230-3]
33 | < 5 | CNC[C@@H](O)COc1ccc(F)c(-c2nc(-c3c(C)noc3C)cc(N3Cc4nccnc4C3)n2)c1 [Example 274-3]
34 | < 5 | CCOC(=O)N1CCC(N(C)c2cc(-c3c(C)noc3C)nc(-c3cccc(OCC(O)CNC)c3)n2)CC1 (stereo not shown) [Example 172-1a]
35 | < 5 | CNC[C@@H](O)COc1ccc(Cl)c(-c2nc(-c3c(C)noc3C)c(C)c(N3Cc4cncnc4C3)n2)c1 [Example 190-3]
36 | < 5 | CNCC(O)COc1cccc(-c2nc(-c3c(C)noc3C)cc(N3CCN(CC(F)(F)F)CC3)n2)c1 (stereo not shown) [Example 132-1a]
37 | < 5 | CNC[C@@H](O)COc1ccc(Cl)c(-c2nc(-c3c(C)noc3C)c(C)c(N3CCC4(C3)CN(C3CC3)C4)n2)c1 [Example 178-3]
38 | < 5 | CNCC(O)COc1ccc(Cl)c(-c2nc(NC3CC4(CC4)C3)c(C)c(-c3c(C)noc3C)n2)c1 (stereo not shown) [Example 218-3]
39 | < 5 | CNC[C@@H](O)COc1ccc(Cl)c(-c2nc(N[C@H]3CN(C(=O)OC)C[C@@H]3F)c(C)c(-c3c(C)noc3C)n2)c1 [Example 202-3]
40 | < 5 | CCOC(=O)N1CC[C@@H](Nc2nc(-c3cccc(OCC(O)CNC)c3)nc(-c3c(C)noc3C)c2C)[C@H](F)C1 (stereo partly shown) [Example 229-1a]
41 | < 5 | CNC[C@@H](O)COc1ccc(Cl)c(-c2nc(-c3c(C)noc3C)c(C)c(N3CC4(CCN(C(=O)OC)C4)C3)n2)c1 [Example 175-3]
42 | < 5 | CNC[C@@H](O)COc1ccc(Cl)c(-c2nc(-c3c(C)noc3C)c(C)c(N3CCC4(CC4)C3)n2)c1 [Example 234-3]
43 | < 5 | CNC[C@H](O)COc1ccc(F)c(-c2nc(-c3c(C)noc3C)c(C)c(N3CCC4(CC3)CN(C(=O)OC)C4)n2)c1 [Example 84-3]
44 | < 5 | CNCC(O)COc1cccc(-c2nc(N[C@H]3CCOC[C@@H]3F)c(C)c(-c3c(C)noc3C)n2)c1 (stereo partly shown) [Example 279-1a]
45 | < 5 | CNC[C@@H](O)COc1ccc(Cl)c(-c2nc(-c3c(C)noc3C)c(C)c(N3Cc4nn(C)c(C)c4C3)n2)c1 [Example 252-3]
46 | < 5 | CNCC(O)COc1cccc(-c2nc(Nc3nnc(C4CC4)s3)c(C)c(-c3c(C)noc3C)n2)c1 (stereo not shown) [Example 217-1a]
47 | < 5 | CCS(=O)(=O)N1CCC(Nc2nc(-c3cccc(OCC(O)CNC)c3)nc(-c3c(C)noc3C)c2C)C1 (stereo not shown) [Example 197-1a]
48 | < 5 | CNCC(O)COc1cccc(-c2nc(N[C@H]3C[C@H](C(=O)OC)C3)c(C)c(-c3c(C)noc3C)n2)c1 (stereo partly shown) [Example 221-1a]
49 | < 5 | CNC[C@H](O)COc1cccc(-c2nc(-c3cnc4cnccn34)cc(N(C)C3CCOCC3)n2)c1 [Example 486-1a]
